Test results: patent publication US9790253B2, “OSW-1 analogs and conjugates, and uses thereof” (priority 2011, dated 2017)
Substitutions are numbered along the chain they refer to. “Also recorded” adds a separate entry of the source.

Tests used:
[1] = biological target: T1, OSBP1(V582M) (Homo sapiens, UniProt P22059, V582M); assay: [3H]-25-OHC binding, OSBP1(V582M) mutant; conditions: for binding affinity for OSBP1(V582M) compared to wt OSBP1-myc-his: [3H]-25-OHC competition binding
T1 construct: made in house; host or cells: HEK-293T (transient transfection; S100 lysate, not purified)
T1 sequence (P22059 1-807 V582M): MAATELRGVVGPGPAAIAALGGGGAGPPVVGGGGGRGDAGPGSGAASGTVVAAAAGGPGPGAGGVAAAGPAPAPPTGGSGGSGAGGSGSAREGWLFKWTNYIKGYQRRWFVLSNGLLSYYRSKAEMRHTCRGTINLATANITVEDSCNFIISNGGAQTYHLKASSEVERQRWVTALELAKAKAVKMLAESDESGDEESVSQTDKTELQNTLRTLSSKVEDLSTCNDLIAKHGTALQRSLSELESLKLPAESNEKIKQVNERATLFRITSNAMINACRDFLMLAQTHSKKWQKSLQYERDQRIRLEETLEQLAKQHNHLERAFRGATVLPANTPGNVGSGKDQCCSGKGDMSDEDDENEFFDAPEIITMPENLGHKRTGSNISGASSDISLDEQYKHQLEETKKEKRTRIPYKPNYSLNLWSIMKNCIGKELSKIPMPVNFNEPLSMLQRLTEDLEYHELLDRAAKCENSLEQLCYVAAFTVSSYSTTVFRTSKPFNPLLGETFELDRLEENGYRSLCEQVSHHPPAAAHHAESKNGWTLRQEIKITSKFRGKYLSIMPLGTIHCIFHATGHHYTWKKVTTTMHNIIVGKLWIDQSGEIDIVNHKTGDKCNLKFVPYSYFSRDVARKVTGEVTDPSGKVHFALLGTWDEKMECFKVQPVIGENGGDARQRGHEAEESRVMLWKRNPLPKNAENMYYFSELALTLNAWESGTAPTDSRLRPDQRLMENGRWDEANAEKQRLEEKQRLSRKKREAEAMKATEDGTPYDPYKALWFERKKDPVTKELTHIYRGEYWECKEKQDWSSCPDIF
Method: [^3H]-25-Hydroxycholesterol charcoal-dextran binding assay.
The binding affinity of 1, 2 and 4a to the OSBP1(M446W) and OSBP1(V582M) mutants were then determined using [^3H]-25-OHC competition binding. […] Within error limits, the binding affinity of 1, 2 and 4a for these two OSBP1 mutants were unchanged compared to wt OSBP1-myc-his (FIG. 4D).

[2] = biological target: T2, OSBP1 protein levels in HCT-116 cells (Homo sapiens, UniProt P22059); assay: OSBP1 protein levels by western blotting; format: cell-based; conditions: for reduction in OSBP1 protein levels: 24 h
T2 construct: endogenous in cells; host or cells: HCT-116
T2 sequence (P22059 1-807): T1 sequence (P22059 1-807 V582M) with M582V
Method: A possible explanation for this observation was that treatment with 1 and 2 caused a decrease in OSBP1 levels. Treatment of HCT-116 cells with vehicle (DMSO) or 25-OHC (10 μM) had no effect on OSBP1 levels, as assessed by western blotting (FIG. 6A). However, treatment with 1 or 2 induced a dramatic, time-dependent reduction of OSBP1 levels (FIG. 6A). For example, 50 nM of 1 or 10 nM of 2 caused an approximately 75% reduction in OSBP1 protein levels at 24 h in HCT-116 cells (FIG. 6A), with a similar effect recorded in A549 cells. […] OSBP1 levels were determined using both an antibody recognizing the far N-terminus of OSBP1 (FIG. 6) and also an antibody recognizing the C-terminus of OSBP1.
One possible explanation for the reduction in OSBP1 levels upon treatment with 1 and 2 was proteasome-dependent degradation. To determine whether degradation of OSBP1 was proteasome dependent, proteasome inhibitors MG-132 or lactacystin were co-administered with 1 and 2. […] Similar results were obtained in A549 cells.

[3] = test system: HeLa cells overexpressing OSBP1(M446W)-myc-his; assay: Overexpression-viability assay, OSBP1(M446W)-myc-his; format: cell-based; conditions: 48 h
Method: (§1) Overexpression-viability assays with wild-type and mutant OSBP/ORP4L constructs were carried out by transfecting HeLa cells with the appropriate plasmids using Lipofectamine™ LTX with PLUS™ reagent (Invitrogen) as instructed, and after 8 h of transfection, the cells were re-plated for the cell viability assay, performed as described above. Expression levels were evaluated by immunoblotting at the time of dosing.
(§2) For additional support that OSBP1 and ORP4L are targets of the ORPphilins, dominant drug-resistant alleles of these proteins were sought. 15 OSBP1 residues inside and outside the region of the protein previously reported to mediate sterol binding were mutated (FIG. 4C). The growth inhibition induced by the ORPphilins was determined in HeLa cells overexpressing either wild-type or mutant OSBP1-myc-his proteins. Expression of wt OSBP1-myc-his and mutant OSBP1-myc-his were nearly equivalent as measured by western blot.
(§3) The same mutant caused a 3.9-fold reduction in the antiproliferative activity of OSW-1 (2) (FIG. 4E2) and a 2.7-fold reduction in the activity of schweinfurthin A (4a) (FIG. 4E3). […] The antiproliferative activity of taxol was unaffected by expression of these two OSBP1 mutant proteins (FIGS. 4E4, 4E8).

[4] = test system: HeLa cells overexpressing OSBP1(V582M); assay: Overexpression-viability assay, OSBP1(V582M)-myc-his; format: cell-based; conditions: 48 h
Method: as §1, §2, §3

[5] = test system: NPC1^−/− (M12) CHO cells; assay: Antiproliferative activity in NPC1-/- (M12) CHO cells; format: cell-based

Row | Compound | 25-OHC KD of OSBP1(V582M) compared to wt [1] | effect on OSBP1 levels ([2]; 10 μM) | suppression of OSBP1 level reduction caused by 2 ([2]; 25-OHC (10 M or 20 M) with 2 (1 nM)) | reduction in antiproliferative activity at the GI50 level, OSBP1(M446W) vs wt OSBP1 [3] [fold] | reduction in antiproliferative activity, OSBP1(V582M) vs wt OSBP1 [4] | binding affinity for OSBP1(V582M) compared to wt OSBP1-myc-his [1] | reduction in OSBP1 protein levels ([2]; 10 nM) | antiproliferative activity in NPC1−/− (M12) CHO cells compared to wt CHO cells [5] | reduction in OSBP1 protein levels ([2]; 50 nM) | suppression of OSBP1 level reduction caused by 2 ([2]; 5 μM with 10 nM of 2) | effect on OSBP1 levels, compound alone ([2]; concentration not given)
1 | C[C@H](CCCC(C)(C)O)[C@H]1CC[C@H]2[C@@H]3CC=C4C[C@@H](O)CC[C@]4(C)[C@H]3CC[C@]12C [Compound 25-OHC, 25-hydroxycholesterol] | slightly higher | no effect; also recorded: did not reduce | significantly suppressed | – | – | – | – | – | – | – | –
2 | COc1ccc(C(=O)O[C@H]2[C@H](O[C@@H]3[C@@H](OC(C)=O)[C@H](O[C@H]4C[C@H]5[C@@H]6CC=C7C[C@@H](O)CC[C@]7(C)[C@H]6CC[C@]5(C)[C@@]4(O)[C@H](C)C(=O)CCC(C)C)OC[C@@H]3O)OC[C@@H](O)[C@@H]2O)cc1 [OSW-1] | – | – | – | 3.9 | did not affect | unchanged | approximately 75% | no change | – | – | –
3 | C[C@@H]1[C@]2(O[C@H]3C=C4[C@@H]5CC[C@H]6Cc7nc8c(nc7C[C@]6(C)[C@H]5C[C@@H](O)[C@]4(C)[C@]31O)C[C@@H]1CC[C@H]3C4=CC[C@@H]5[C@H](C)[C@@]6(OC[C@]45C(=O)C[C@@H]3[C@@]1(C)C8)OC(C)(C)C[C@H]6O)O[C@](C)(CO)C[C@H]2O [cephalostatin 1, Cephalostatin 1] | – | – | – | 18 | 9.4 fold | unchanged | – | no change | approximately 75% | – | –
4 | schweinfurthin A | – | – | – | 2.7 | did not affect | unchanged | – | no change | – | completely suppressed | no effect
